Test results as given in patent US5986083A, “Synthetic oligomers having phosphonate internucleosidyl linkages of undefined chirality mixed with non-phosphonate internucleosidyl linkages” (priority 1994, dated 1999).

System: complementary RNA target
Experiment: Thermal dissociation from complementary RNA target (second Example H)
Type: binding
Conditions: for Td: 50% of bound oligomer denatured from RNA target, pH 6.8 denaturation buffer; for ΔTd/DE Bond: per DE bond
Protocol: The following oligomers [SEQ. ID. NO. ] were tested for their ability to bind a complementary RNA target. Each has the same nucleotide sequence but with a different number of phosphodiester and/or methylphosphonate linkages.
An RNA target containing a tandem array of complementary target sequences connected by noncomplementary sequences (170 nt long) was prepared from synthetic DNA oligonucleotides by standard closing techniques.
Each of the test oligomers (above) was end-labeled with ^32 p using […] and T4 polynucleotide kinase. The resulting labeled oligomers were purified on a Nensorb-20 column (New England Nuclear/DuPont) according to the manufacturer's specifications. The final specific activity of each oligomer ranged between 2×10^6 and 4×10^6 cpm/pmol (Cerenkov radiation). Annealing reactions were prepared with one of the test oligomers (100,000 cpms) and 250 pmols of RNA target in 20 mM potassium phosphate, 0.03% potassium sarkosylate, 0.1 mM EDTA, pH 7.2, total volume--200 μL. These annealing reactions were heated to 80° C. and then cooled slowly to 4° C. over a period of about 4 to 6 hours. Next, 20 μL aliquots from each tube were transferred to separate tubes containing 0.5 mL of 0.1 M sodium phosphate, 0.1% Triton X-100, pH 6.8. This transfer step was done on ice. The resulting tubes were individually heated at various temperatures "denaturation temperatures", ranging from 10 to 70° C.) in a circulating water bath for five minutes and then quickly cooled by immersion in crushed ice. Next, 10 μL of Amine BioMag (Advanced Magnetics, Inc., Cat. No. M-4100, 50 mg/mL stock in water) was added to the tube and it was vortexed briefly and placed back on ice for 5 minutes. During this time period, the RAN target strands (both free and bound) separated onto the magnetic support. […] Thus, the amount of radioactivity bound to the support was proportional to the amount of hybridized oligomer remaining at each denaturation temperature after five minutes. A curve was then plotted for the percentage of hybridized oligomer remaining at each denaturation temperature. The thermal dissociation temperature (Td) was defined as the temperature at which 50% of the bound oligomer had denatured away from the RNA target. The following table summarizes the results from this experiment.

Substance	Td	ΔTd/DE Bond
5'-GpAmTmAmTmCmTmGmCmGmGmTmGmTmCmCmAmT-3' [Oligomer 1036]	29.3 °C	–
5'-GpAmTmAmTdCmTmGpCmGmGmTmGmTpCmCmAmT-3' [Oligomer 1362]	30.7 °C	0.5 °C
5'-GpAmTmAmTmCpTmGmCpGmGmTmGmTmCpCpAmT-3' [Oligomer 1361]	32.2 °C	0.7 °C
5'-GpAmTpAmTpCpTpGmCpGmGmTpGmTpCpCpAmT-3' [Oligomer 1363]	45.2 °C	1.8 °C
5'-GpAmTpAmTpCmTpGmCmGmGmTpGmTpCmCmAmT-3' [Oligomer 1359]	34.0 °C	0.9 °C
